{"source": "patent US7943606B2", "about": "“Compositions and methods to control abnormal cell growth” (CanCure Laboratories, LLC, priority 2005, dated 2011)", "key": {"[1]": {"tested_on": "HL-60, HT-168, PC-3 and T47D human tumor xenografts", "assay": "Growth of HL-60, HT-168, PC-3 and T47D human tumor xenografts in mice", "format": "in vivo, mouse", "description": "Tumor volume was calculated according to the generally accepted formula: V=a^2×b×π/6, where “a” and “b” mean the shortest and longest diameter, respectively, of the measured tumor."}, "[2]": {"tested_on": "human leukemia xenografts (HL-60)", "assay": "HL-60 human leukemia xenograft model: tumor volume and survival", "format": "in vivo, mouse", "from_the_text": "Tumors were developed in first generation hybrid BDF1 (C57 B1 female×DBA/2 male) adult female mice kept at specified pathogen free (SPF) hygienic level. Suspensions of HL-60 human leukemia cells, or approximately 0.1 cm^3 volume of tumor tissue derived from HT-168 human melanoma, PC-3 human prostate adenocarcinoma, T47D human breast carcinoma, MXT mouse mammary cancer, or mouse B16 melanoma cells were implanted subcutaneously to develop the tumors. After 12-18 days when the tumor-bearing mice were first treated, the size of the tumors was in the 0.2-0.4 cm^3 range. All compounds used were dissolved in physiological (0.9%) saline (NaCl), and the agents, alone or in combinations, were applied subcutaneously or intraperitoneally in 50 μl volume. Tumor volume was determined by calipers in three dimensions; this technique is well known to one having ordinary skill in the art. Tumor volume was calculated according to the generally accepted formula: V=a^2×b×π/6, where “a” and “b” mean the shortest and longest diameter, respectively, of the measured tumor.\nThe HL-60 human leukemia model was developed and treated as described above. On day 12 the mice either remained untreated (Group 1) or were treated with 4.6 mg/kg CCDTHT (Group 2) or 4.6 mg/kg CCDTHT+15 mg/kg highly purified PALP (Group 3). Both CCDTHT and PALP were administered subcutaneously for three 5-day cycles with 2 resting days included between each 5-day cycle. In each group 7 mice were included."}, "[3]": {"tested_on": "HepG2 cells", "assay": "Viability of HepG2 hepatoblastoma cells (MTT assay)", "format": "cell-based, human", "conditions": "50 and 100 μM, 10 days", "description": "To quantify cell death, around the time when significant and characteristic morphological changes took place, cells were pulse-labeled for 10 minutes with [^3H]thymidine to measure DNA activity as described elsewhere [Tomono, M. and Kiss, Z. (1995), “Ethanol enhances the stimulatory effects of insulin and insulin-like growth factor-I on DNA synthesis in NIH 3T3 fibroblasts,” Biochem. Biophys. Res. Commun. 208, 63-67]. Also, cells were collected as suspensions using trypsin, an established method in cell biology, followed by re-plating of cells in fresh tissue culture medium. If no viable cells were obtained after one week in culture, it meant that the cells at the time of re-plating were dead. Survival values obtained with untreated cells were considered 100%. For the determination of relative number of viable cells after treatments, in most cases the MTT assay was used. This calorimetric assay is based on the ability of living cells, but not dead cells, to reduce 3-(4,5-dimethyl thiazol-2-yl)-2,5-diphenyltetrazolium bromide [Carmichael, J, De Graff, W. G., Gazdar, A. F., Minna, J. D. and Mitchell, J. B. (1987), “Evaluation of tetrazolium-based semi-automated calorimetric assay: Assessment of chemosensitivity testing,” Cancer Res. 47, 936-942]. For this assay, cells were plated in 96-well plates, and the MTT assay was performed both in untreated and treated cell cultures. […]"}, "[4]": {"assay": "Toxicological studies in mice", "format": "in vivo, mouse", "description": "Accordingly, a well-tolerated dose for CCDTHT in mice is 450 μmole/animal (weighing about 25 g) which corresponds to a dose of 4.6 mg/kg. Therapeutically effective concentrations in humans will exert maximal inhibitory effects on the growth of non-healthy tissues without causing significant toxicity in normal healthy tissues.\nParallel toxicological studies also have been performed with 200-500 μmole/animal doses of the commercially available CCompound1. […] CCompound26, which may have an even better toxicity profile based on in vitro experiments with normal cells, was synthesized much later and has not yet been tested in animal experiments."}, "[5]": {"assay": "Solubility in water"}, "[6]": {"assay": "Viability of NIH 3T3 normal fibroblasts (MTT assay)", "format": "cell-based", "conditions": "mouse", "description": "To quantify cell death, around the time when significant and characteristic morphological changes took place, cells were pulse-labeled for 10 minutes with [^3H]thymidine to measure DNA activity as described elsewhere [Tomono, M. and Kiss, Z. (1995), “Ethanol enhances the stimulatory effects of insulin and insulin-like growth factor-I on DNA synthesis in NIH 3T3 fibroblasts,” Biochem. Biophys. Res. Commun. 208, 63-67]. Also, cells were collected as suspensions using trypsin, an established method in cell biology, followed by re-plating of cells in fresh tissue culture medium. If no viable cells were obtained after one week in culture, it meant that the cells at the time of re-plating were dead. Survival values obtained with untreated cells were considered 100%. For the determination of relative number of viable cells after treatments, in most cases the MTT assay was used. This calorimetric assay is based on the ability of living cells, but not dead cells, to reduce 3-(4,5-dimethyl thiazol-2-yl)-2,5-diphenyltetrazolium bromide [Carmichael, J, De Graff, W. G., Gazdar, A. F., Minna, J. D. and Mitchell, J. B. (1987), “Evaluation of tetrazolium-based semi-automated calorimetric assay: Assessment of chemosensitivity testing,” Cancer Res. 47, 936-942]. For this assay, cells were plated in 96-well plates, and the MTT assay was performed both in untreated and treated cell cultures. The MTT assay also was performed at the start of treatments to allow assessment of proliferation rates in the control and treated cell cultures.\nThe NIH 3T3 (normal) mouse fibroblast, A431 human epidermoid adenocarcinoma, and MCF-7 human breast cancer cells were cultured in DMEM medium containing 10% FBS. The MEL-28 human melanoma cells were cultured in MEM medium containing 10% FBS. The HT-29 human colon adenocarcinoma cells were cultured in McCoy's 5a medium containing 10% FBS. The A549 human lung carcinoma cells were maintained in Ham's F12K medium containing 10% FBS. Cells were seeded into 96-well plates and treated at ˜70-90% confluency. Two hours before treatments the medium was changed for fresh 10% serum medium, and then the cells were incubated for 72 hours in the presence of 0-200 μM of CCompound1 (●) or CCompound3 (CCDTHT) (▴), as indicated. The MTT assay was used to determine cell viability after treatments. The values, shown in FIGS. 5A-5F and expressed as percent decrease in viability compared to the untreated control cells, are the mean±std. dev. of 8 incubations in one experiment. Similar results were obtained in another experiment.\nNIH3T3, T47D, A-431, HT-29, and MEL-28 cells were cultured as indicated earlier. CaOV-3 human ovarian cancer cells were cultured in DMEM containing 10% FBS. ZR-75-1 human estrogen receptor-positive breast cancer cells were maintained in RPMI 1640 medium supplemented with 10% FBS. HTB-157 human fetal fibroblasts, MEL-24 human malignant melanoma cells, Hep G2 human hepatoblastoma cells, and CaCO-2 human colon adenocarcinoma cells were maintained in Eagles's MEM containing 10% FBS. MB-231 human estrogen receptor-negative breast cancer cells were maintained in Leibovitz's L-15 medium supplemented with 10% FBS. Cells were seeded into 96-well plates and treated at ˜70-90% confluency. Two hours prior to treatments the medium was changed for fresh 10% serum medium, and then the cells were incubated for 10 days in the absence (□) or presence of 50 μM CCDTHT ? or 100 μM CCDTHT (▪). The medium was changed and the cells were re-treated on days 3 and 6. The MTT assay was used to determine cell viability on day 10. The data, shown in FIG. 6, are the mean±std. dev. of 8 incubations in one experiment. (The experiment was repeated twice with similar results).\nNIH 3T3, MEL-28, MEL-24, CaOV-3, ZR-75-1, and T47D cells were cultured as described above. The OVCAR human ovarian cancer cells were cultured in DMEM containing 10% FBS. Cells were seeded into 96-well plates and used at ˜60-80% confluency. […]"}, "[7]": {"conditions": "CCDTHT 4.6 mg/kg s.c. without or with PALP 15 mg/kg s.c., 5-day cycles"}}, "note": "Read-outs that look alike come from different tables or passages of the source.", "data": [{"smiles": "CC[N+](C)(CC)CCOCc1ccc2sc3ccccc3c(=O)c2c1.[I-]", "note": "[CCDTHT, N,N-diethyl-N-methyl-2-[(9-oxo-9H-thioxanthen-2-yl)methoxy]-ethanaminium iodide]", "values": [{"measurement": "weight loss", "setting": "[1]; 50-400 μmole s.c. once daily", "value": "In none of the cases did CCDTHT cause significant weight loss"}, {"measurement": "growth of each tumor (HL-60, HT-168, PC-3, T47D)", "setting": "[1]; 200-400 μmole s.c. once daily", "value": "considerably reduced"}, {"measurement": "Tumor volume, Day 16", "setting": "[2]; [7]", "value": "1.26 ± 0.73", "unit": "cm^3"}, {"measurement": "Tumor volume, Day 22", "setting": "[2]; [7]", "value": "2.74 ± 0.37", "unit": "cm^3"}, {"measurement": "Tumor volume, Day 26", "setting": "[2]; [7]", "value": "3.72 ± 0.44", "unit": "cm^3"}, {"measurement": "Tumor volume, Day 12", "setting": "[2]; CCDTHT 4.6 mg/kg s.c. without or with PALP 15 mg/kg s.c., start of treatment", "value": "0.46 ± 0.32", "unit": "cm^3"}, {"measurement": "survival of leukemic mice", "setting": "[2]; CCDTHT 4.6 mg/kg without or with PALP 15 mg/kg", "value": "34.9 ± 6.6", "unit": "days"}, {"measurement": "sensitivity to the inhibitory actions, HepG2", "setting": "[3]", "value": "moderately sensitive"}, {"measurement": "death of animals by day 30", "setting": "[4]; 900 μmole (about 9.2 mg/kg)", "value": 40, "unit": "%"}, {"measurement": "tissue alterations", "setting": "[4]; 900 μmole (about 9.2 mg/kg)", "value": "mild parenchymal degeneration in the heart, focal hypostasis and chronic bronchopneumonia in the lung, and multifocal degeneration of hepatocytes in the liver"}, {"measurement": "change in the composition of various blood constituents", "setting": "[4]; single 450 μmole (about 4.6 mg/kg) or 400 μmole daily for 5 consecutive days", "value": "did not cause any significant change"}, {"measurement": "pathological alterations in liver, brain, kidney, heart, spleen, intestine and lung", "setting": "[4]; single 450 μmole or 400 μmole daily for 5 consecutive days", "value": "did not induce significant pathological alterations"}, {"measurement": "solubility in water", "setting": "[5]", "value": "sufficiently soluble in water for injection"}, {"measurement": "solubility in water", "setting": "[5]; listed as CCompound3", "value": "soluble in water"}, {"measurement": "cytotoxicity at 10 days, 100 μM", "setting": "[6]", "value": "≤ 50", "unit": "%"}]}]}
